Assay results published in ChEMBL document CHEMBL3045974, “Global antifungal profile optimization of chlorophenyl derivatives against Botrytis cinerea and Colletotrichum gloeosporioides” (2009).

What was measured:
Type in all cases: functional
[1] = test system: Botrytis cinerea; assay: Antifungal activity against Botryotinia fuckeliana 2100 assessed as inhibition of radial growth at 50 ug/mL at 25 degC measured after 5 days; settings: Botrytis cinerea, 2100, 120 h; read-out: GI
[2] = test system: Botrytis cinerea; assay: Antifungal activity against Botryotinia fuckeliana 2100 assessed as inhibition of radial growth at 100 ug/mL at 25 degC measured after 5 days; settings: Botrytis cinerea, 2100, 120 h; read-out: GI
[3] = test system: Botrytis cinerea; assay: Antifungal activity against Botryotinia fuckeliana 2100 assessed as inhibition of radial growth at 150 ug/mL at 25 degC measured after 5 days; settings: Botrytis cinerea, 2100, 120 h; read-out: GI
[4] = test system: Colletotrichum gloeosporioides; assay: Antifungal activity against Colletotrichum gloeosporioides 20122-CECT assessed as inhibition of radial growth at 50 ug/mL at 25 degC measured after 5 days; settings: 120 h, read-out: GI
[5] = test system: Colletotrichum gloeosporioides; assay: Antifungal activity against Colletotrichum gloeosporioides 20122-CECT assessed as inhibition of radial growth at 100 ug/mL at 25 degC measured after 5 days; settings: 120 h, read-out: GI
[6] = test system: Colletotrichum gloeosporioides; assay: Antifungal activity against Colletotrichum gloeosporioides 20122-CECT assessed as inhibition of radial growth at 150 ug/mL at 25 degC measured after 5 days; settings: 120 h, read-out: GI
[7] = test system: Botrytis cinerea; assay: Antifungal activity against Botryotinia fuckeliana 2100 assessed as inhibition of radial growth at 150 ug/mL at 25 degC measured after 4 days; settings: Botrytis cinerea, 2100, 96 h; read-out: GI
[8] = test system: Colletotrichum gloeosporioides; assay: Antifungal activity against Colletotrichum gloeosporioides 20122-CECT assessed as inhibition of radial growth at 50 ug/mL at 25 degC measured after 4 days; settings: 96 h, read-out: GI
[9] = test system: Colletotrichum gloeosporioides; assay: Antifungal activity against Colletotrichum gloeosporioides 20122-CECT assessed as inhibition of radial growth at 100 ug/mL at 25 degC measured after 4 days; settings: 96 h, read-out: GI
[10] = test system: Colletotrichum gloeosporioides; assay: Antifungal activity against Colletotrichum gloeosporioides 20122-CECT assessed as inhibition of radial growth at 150 ug/mL at 25 degC measured after 4 days; settings: 96 h, read-out: GI

Structure (SMILES) | inhibition of growth at 50 µg/mL [1] [%] | inhibition of growth at 100 µg/mL [2] [%] | inhibition of growth at 150 µg/mL [3] [%] | inhibition of growth at 50 µg/mL [4] [%] | inhibition of growth at 100 µg/mL [5] [%] | inhibition of growth at 150 µg/mL [6] [%] | inhibition of growth at 150 µg/mL [7] [%] | inhibition of growth at 50 µg/mL [8] [%] | inhibition of growth at 100 µg/mL [9] [%] | inhibition of growth at 150 µg/mL [10] [%]
O=C(c1ccc(Cl)cc1)C1CC1 [(4-CHLOROPHENYL)(CYCLOPROPYL)METHANONE] | 88 | 99 | 100 | 21 | 63 | 86 | – | – | – | –
O[C@@H](c1ccccc1)c1ccc(Cl)cc1 | 91 | 100 | 100 | 66 | 85 | 96 | – | – | – | –
Clc1ccc(/C=C/c2ccccc2)cc1 | – | – | – | 0 | 0 | 0 | 19 | – | – | –
OC(c1ccccc1)c1ccc(Cl)cc1 (racemic) | 95 | 100 | 100 | 63 | 87 | 94 | – | – | – | –
CC[C@H](O)c1ccc(Cl)cc1 | 62 | 73 | 92 | 28 | 29 | 33 | – | – | – | –
OC(c1ccc(Cl)cc1)C1CC1 (racemic) | 74 | 100 | 100 | 31 | 53 | 80 | – | – | – | –
O=C(Cc1ccccc1)c1ccc(Cl)cc1 | 31 | 33 | 38 | – | – | – | – | 9 | 13 | 17
CCC(=O)c1ccc(Cl)cc1 | 28 | 51 | 91 | 28 | 29 | 36 | – | – | – | –
O[C@@H](c1ccccc1)[C@@H](O)c1ccc(Cl)cc1 | 33 | 63 | 68 | 27 | 52 | 62 | – | – | – | –
O[C@H](c1ccc(Cl)cc1)C1CC1 | 63 | 80 | 97 | – | – | – | – | 20 | 23 | 27
CC[C@@H](OC(C)=O)c1ccc(Cl)cc1 | 12 | 40 | 44 | 0 | 0 | 0 | – | – | – | –
